Data set [1] deals with IFN signalling. The experiment in a line: IFNB1 and IFN-stimulated gene expression (qPCR). It counts as cell-based. A general note: Real-time PCR tracks product formation cycle by cycle.
The nature of data set [2]: Metabolic stability in human liver microsomes. It counts as in vitro ADME. The settings on record: average, read-out: T1/2 of metabolism. The procedure:
(§1) Thus, a pharmacokinetic study was performed for DBM in Sprague-Dawley (SD) rats. Following oral administration of menstruum or DBM at 200 mpk, blood samples from the rats were collected at 2 min, 5 min, 15 min, 30 min, 1 h, 2 h, 4 h, 8 h, and 24 h posttreatment. The concentration of DBM in the plasma was determined by liquid chromatography with tandem mass spectrometry (LC-MS/MS). The minimum effective concentration (MEC) line in the graph represents the EC95 value of DBM (Fig 3C). […] To analyse the metabolic stability of DBM, we incubated human and mouse liver microsomes with DBM. The T1/2 of metabolism was an average of 13.92 min in human liver microsomes and 4.84 min in mouse liver microsomes.

In data set [3] the test system is HCoV-OC43. The data set is described as follows: Antiviral activity in vitro, qRT-PCR, HCoV-OC43 in Huh-7 cells. It counts as cell-based. The settings on record: for HCoV-OC43, Huh-7: inhibition at the concentration (Fig2B): replicates.
In data set [4] the test system is caspase-6. It counts as cell-based.
Data set [5] has as its system Huh-7 cells. It counts as cell-based.
The subject of data set [6] is HCoV-OC43. The data set is described as follows: Viral binding assay. It is filed as cell-based. The settings on record: MOI of 50, on ice 2 hours. The procedure:
To obtain further insight into the stage at which DBM inhibits the replication of HCoV-OC43 and other HCoVs, RD cells were incubated with compounds, including DBM, remdesivir (RDV), and chloroquine (CQ), at different stages of viral infection. Viral RNA from the supernatant was extracted and quantitatively analysed via qRT-PCR. […] For the viral binding assay, cells were cultured in the presence or absence of DBM at different concentrations for 1 hour before being infected with HCoV-OC43 at an MOI of 50, and then were placed on ice for 2 hours for the viral particles to bind to the membrane of the host cells, followed by washing with PBS. […] In addition to binding to receptors from host cells, the spike proteins of HCoV-OC43 could also trigger membrane fusion when HCoV-OC43 spike plasmid-transfected 293T cells were seeded together with RD cells as target cells, and the addition of DBM had no effect on this process (S5C Fig). […] To determine whether DBM influences viral release, we quantified viral RNA both intracellularly and in the supernatant.
The cells were seeded onto 24-well plates and incubated overnight at 37 °C. […] The cells were washed three times with PBS before total RNA was extracted and analysed by qRT-PCR as previously described.

A short description of data set [7]: Metabolic stability in mouse liver microsomes. It counts as in vitro ADME. The note with it: average, read-out: T1/2 of metabolism. The procedure: as §1
In general terms: Microsomes from liver hold many membrane-bound enzymes, among them those of drug oxidation.

The conditions of data set [8]: 1% DBM in the diet, mice; cited from earlier work.
Data set [9] deals with HCoV-OC43. The data set is described as follows: HCoV-OC43 nucleocapsid protein and caspase-6 in infected cells (Western blot). It counts as cell-based. The note with it: cells pretreated with serially diluted compound.
Data set [10] has as its system HCoV-NL63. The data set is described as follows: Antiviral activity in vitro, HCoV-NL63. It counts as cell-based. The note with it: Human coronavirus NL63, read-out: EC50 HCoV-NL63.
The nature of data set [11]: in vivo. The settings on record: Sprague-Dawley, rat, po, 200 mg/kg.

SMILES strings stand for the structures. pEC50: −log10 of the molar value. Values joined by “and” are separate entries in the source; they are usually repeats but may differ in a detail not shown here. Identical values can stand only once.

`O=C(CC(=O)c1ccccc1)c1ccccc1` [DBM, dibenzoylmethane]: the IFITM3 expression in data set [1] is 1.19 and 1.66 and 1.36. Besides, the IFNB1 expression in data set [1] is 6.09 and 4.34 and 4.64. Besides, the OAS1 expression in data set [1] was 1.74 and 2.26 and 1.65. For the same compound, in [1], the “suppression of IFN signalling by caspase-6 and nucleocapsid proteins (IFNB1, ISGs)” value was “reversed the suppression of IFN signalling”. Further, in [1] (IFNB1 and ISG mRNA), the “IFN signalling in HCoV-OC43-infected cells” value is “enhanced IFN signalling”. Further, the results for the half-life in data set [2], in data set [7] and in [11] were 13.9 min, 4.84 min and 175 min, respectively. Besides, the pEC50 was 7.05 in data set [3] (Betacoronavirus 1, OC43, Huh-7, 24 h, read-out: EC50 HCoV-OC43 (Huh-7)) and 4.93 in [10]. The “HCoV-OC43, Huh-7: inhibition at the concentration (Fig2B)” value in data set [3] (conc. 0.1 (unit not given)) was 51.3 and 53.7 and 47.2; in data set [3] (conc. 0.2 (unit not given)) it was 64.6 and 65.3 and 60.0; in data set [3] (conc. 0.7 (unit not given)), 95.4 and 95.1 and 94.4; in data set [3] (conc. 2.2 (unit not given)), 98.2 (2×) and 98.0; in [3] (conc. 6.7 (unit not given)), 98.4; in data set [3] (conc. 20.0 (unit not given)), 98.3 (2×) and 98.5. For the same compound, the “Caspase-6/CASP6 level relative to DMSO (Fig5I)” value in data set [4] was 75.9 and 67.7 and 60.2 and 63.8. Moreover, the “relative level of CASP6 mRNA” value in data set [4] is reported as “decreased”. Further, the treated/untreated in data set [5] is 1.279 and 1.276 and 1.31 and 1.204 and 1.484. Besides, the viral binding entry in data set [6] was “did not interfere”. The “safety of feeding in the diet” value in data set [8] is “safe”. Also, the “virus replication (nucleocapsid protein, Western blot)” value in data set [9] is “inhibited virus replication”. This compound registered an AUC(0-t) in data set [11] of 34300 ng·h/mL. The compound further gave a peak concentration (Cmax) in data set [11] of 4760 ng/mL.

What is called pEC50 is −log10 of the EC50, conventionally taken in molar units. The term AUC(0-t) denotes the area under the concentration-time curve up to a stated or last time point. One may read the Cmax as the highest concentration seen after dosing.
